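Protocol summary: plate cells (96-well), add compound at 5 concentrations, incubate 48 h, interpolate endpoints linearly. Abbreviation: GI50, concentration required for 50% inhibition of growth.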 Activity calls are given as the source filed them. Rule as the data show it: active = GI50 up to about 1.1 µM and inactive = higher.
Tests used:
Experiment in all cases: NCI tumour cell line growth inhibition, 48 h
OVCAR-4 = tested on: OVCAR-4
SK-MEL-5 = tested on: SK-MEL-5
OVCAR-8 = tested on: OVCAR-8
SK-OV-3 = tested on: SK-OV-3
NCI-H460 = tested on: NCI-H460
A498 = tested on: A498
HOP-92 = tested on: HOP-92
NCI-H226 = tested on: NCI-H226
DMS-114 = tested on: DMS-114
SF-295 = tested on: SF-295
M14 = tested on: M14
SN12C = tested on: SN12C
A549 = tested on: A549
HOP-62 = tested on: HOP-62
K562 = tested on: K562
HOP-18 = tested on: HOP-18

Measured: GI50

N#C/C(=C\c1ccc(O)c(O)c1)C(N)=S [TYRPHOSTIN 47]
inactive: OVCAR-4 > 100 µM | SK-MEL-5 71.1 µM | OVCAR-8 > 100 µM | SK-OV-3 > 100 µM | NCI-H460 45.9 µM | A498 > 100 µM | HOP-92 > 58.3 µM | NCI-H226 > 100 µM | DMS-114 18.2 µM | SF-295 82.8 µM | M14 > 100 µM | SN12C > 100 µM | A549 > 100 µM | HOP-62 > 100 µM | K562 22.5 µM | HOP-18 > 100 µM

C/C(=N\NC(=O)c1ccccc1O)c1c(O)cc(C)oc1=O
inactive: OVCAR-4 71 µM | SK-MEL-5 43.8 µM | OVCAR-8 68.2 µM | SK-OV-3 17.4 µM | NCI-H460 43.6 µM | A498 > 100 µM | HOP-92 10.4 µM | NCI-H226 34.3 µM | DMS-114 90.6 µM | SF-295 51.4 µM | M14 > 100 µM | SN12C > 100 µM | A549 33 µM | HOP-62 98.6 µM | K562 72.6 µM | HOP-18 27.2 µM

CC1OC(n2cc(I)c(=O)[nH]c2=O)C=CC1=O (centres undefined)
inactive: OVCAR-4 16.3 µM | SK-MEL-5 16 µM | OVCAR-8 17.1 µM | SK-OV-3 29.2 µM | NCI-H460 18.8 µM | A498 16.1 µM | HOP-92 19.7 µM | NCI-H226 17.6 µM | DMS-114 17 µM | SF-295 18.5 µM | M14 16.9 µM | SN12C 18.7 µM | A549 26.7 µM | HOP-62 18.5 µM | K562 3.92 µM | HOP-18 16.7 µM

NC(=O)NNC/C(Cl)=C(\Cl)C(=O)O
inactive: OVCAR-4 > 100 µM | SK-MEL-5 > 100 µM | OVCAR-8 > 100 µM | SK-OV-3 > 100 µM | NCI-H460 > 100 µM | A498 > 100 µM | NCI-H226 > 50 µM | DMS-114 > 100 µM | SF-295 > 100 µM | M14 > 100 µM | SN12C > 100 µM | A549 > 100 µM | HOP-62 > 100 µM | K562 > 100 µM | HOP-18 > 100 µM

NCCSSCc1ccccc1CSSCCN
inactive: OVCAR-4 > 100 µM | SK-MEL-5 57.9 µM | OVCAR-8 66.2 µM | SK-OV-3 > 100 µM | NCI-H460 > 100 µM | A498 > 100 µM | HOP-92 > 100 µM | NCI-H226 > 100 µM | DMS-114 > 100 µM | SF-295 > 100 µM | M14 > 100 µM | SN12C > 100 µM | A549 > 100 µM | HOP-62 > 100 µM | K562 16.4 µM | HOP-18 > 100 µM

COc1cc2c(cc1O)[C@H](C)C(c1ccc(Cl)cc1)O2 (some centres undefined)
inactive: OVCAR-4 32.1 µM | SK-MEL-5 16.3 µM | OVCAR-8 > 10 µM | SK-OV-3 23.3 µM | NCI-H460 17.9 µM | A498 11.9 µM | HOP-92 17.3 µM | NCI-H226 24.9 µM | DMS-114 13.9 µM | SF-295 31 µM | M14 22.2 µM | A549 24.9 µM | HOP-62 22.6 µM | K562 18.3 µM | HOP-18 36.2 µM

COc1ccc2c(CN3CCCCC3CO)cc3cc(OC)c(OC)cc3c2c1 (centres undefined)
inactive: SK-MEL-5 7.5 µM | OVCAR-8 4.42 µM | SK-OV-3 14.6 µM | A498 3.59 µM | HOP-92 2.1 µM | NCI-H226 4.32 µM | DMS-114 3.49 µM | SF-295 3.02 µM | M14 4.74 µM | SN12C 6.25 µM | A549 3.97 µM | HOP-62 6.43 µM | K562 2.59 µM | HOP-18 13.7 µM

COC(=O)C1=CC2OC13CC1CCC3(C2=O)C1(C)C (centres undefined)
inactive: OVCAR-4 10.9 µM | SK-MEL-5 15.8 µM | OVCAR-8 8.04 µM | SK-OV-3 21 µM | NCI-H460 34.1 µM | A498 19.1 µM | NCI-H226 17.1 µM | DMS-114 7.29 µM | SF-295 19.6 µM | M14 5.28 µM | SN12C 12.7 µM | A549 31.4 µM | HOP-62 23.4 µM | K562 11.2 µM | HOP-18 6.46 µM

C/C(CC(=O)Nc1ccc(NC(=O)C/C(C)=N\NC(N)=O)cc1)=N/NC(N)=O
inactive: OVCAR-4 96.2 µM | SK-MEL-5 > 100 µM | OVCAR-8 > 100 µM | SK-OV-3 > 100 µM | NCI-H460 > 62.4 µM | A498 > 100 µM | HOP-92 71.1 µM | NCI-H226 > 100 µM | DMS-114 > 35.6 µM | SF-295 > 100 µM | M14 65.3 µM | SN12C > 100 µM | A549 > 100 µM | HOP-62 > 100 µM | K562 52.7 µM | HOP-18 63 µM

CCOC(=O)C1(c2ccccc2)CCC(=O)CC1
inactive: OVCAR-4 > 100 µM | SK-MEL-5 > 100 µM | OVCAR-8 > 100 µM | SK-OV-3 > 100 µM | NCI-H460 > 100 µM | A498 > 100 µM | HOP-92 > 100 µM | NCI-H226 > 100 µM | DMS-114 > 100 µM | SF-295 > 100 µM | M14 > 100 µM | SN12C > 100 µM | A549 > 100 µM | HOP-62 > 100 µM | K562 > 100 µM | HOP-18 > 100 µM

O=c1nc(NC(c2ccccc2)(c2ccccc2)c2ccccc2)ccn1CCO
inactive: OVCAR-4 63.2 µM | OVCAR-8 > 100 µM | NCI-H460 57 µM | A498 > 100 µM | HOP-92 41.4 µM | NCI-H226 > 100 µM | DMS-114 52.7 µM | SF-295 61.1 µM | SN12C 88.7 µM | A549 41.1 µM | HOP-62 > 100 µM | K562 58.7 µM | HOP-18 > 100 µM

CCCCCCCCCCCCNC(=S)OCCCC
inactive: OVCAR-4 > 100 µM | SK-MEL-5 81.3 µM | OVCAR-8 > 100 µM | SK-OV-3 > 100 µM | NCI-H460 > 100 µM | A498 > 100 µM | HOP-92 > 100 µM | DMS-114 34.8 µM | SF-295 > 100 µM | M14 > 100 µM | SN12C 59.2 µM | A549 > 100 µM | HOP-62 > 100 µM | K562 65.3 µM | HOP-18 > 100 µM

COc1cccc2c1OC1Sc3ccccc3-c3nn(-c4ccccc4)c-2c31 (centres undefined)
inactive: OVCAR-8 > 100 µM | SK-OV-3 > 100 µM | NCI-H460 > 100 µM | A498 > 100 µM | HOP-92 > 100 µM | DMS-114 > 100 µM | SF-295 > 100 µM | A549 > 100 µM | HOP-62 > 100 µM | K562 > 100 µM | HOP-18 > 100 µM

Cc1ccc2nc(N)[nH]c(=O)c2c1Sc1ccncc1
inactive: OVCAR-4 78.2 µM | SK-MEL-5 21.2 µM | OVCAR-8 > 31.1 µM | SK-OV-3 > 30.6 µM | NCI-H460 5.28 µM | A498 > 78.9 µM | HOP-92 25.9 µM | DMS-114 12.6 µM | SF-295 8.07 µM | M14 8.63 µM | SN12C 17.5 µM | A549 6.73 µM | HOP-62 5.11 µM | K562 15.8 µM | HOP-18 > 100 µM

Reference: ChEMBL document CHEMBL1201862, “PubChem BioAssay data set” (2004)
